Results reported in patent publication US20090111774A1, “PMEA LIPID CONJUGATES” (Luitpold Pharmaceuticals, Inc., priority 2007, published 2009).
Where “and” joins values, the source holds several entries; their conditions need not be identical. Equal entries are not always repeated.

Key:
microtubule assembly = conditions: Bradley et al., Clin. Cancer Res. 2001; cited from earlier work
RV 2 = type: cell-based
Flu A = type: cell-based
HCMV = assay: In vitro antiviral screening (selectivity index), HCMV; type: cell-based, herpes cytomegalovirus
BK (polyoma) = type: cell-based, polyoma (BK) virus
HPV-11 = assay: In vitro antiviral screening (selectivity index), HPV-11; type: cell-based; conditions: human papillomavirus (HPV)
Rift Valley Fever = type: cell-based
Flu B = type: cell-based
HSV-2 = assay: In vitro antiviral screening (selectivity index), HSV-2; type: cell-based, herpes simplex virus type 2
Measles = assay: In vitro antiviral screening (selectivity index), Measles (NR assay); type: cell-based, measles virus
Punta Toro = type: cell-based
Pichinde = type: cell-based
Vaccinia = type: cell-based
HSV-1 = assay: In vitro antiviral screening (selectivity index), HSV-1; type: cell-based, herpes simplex virus type 1
Yellow Fever = type: cell-based
SARS = type: cell-based
Cowpox = type: cell-based
RSV A = assay: In vitro antiviral screening (selectivity index), RSV A; type: cell-based
Adeno = type: cell-based
VEE = type: cell-based
VZV = assay: In vitro antiviral screening (selectivity index), VZV; type: cell-based, varicella-zoster virus
Dengue = assay: In vitro antiviral screening (selectivity index), Dengue; type: cell-based
PIV = type: cell-based
Tacaribe = type: cell-based
[1] = cited from earlier work
[2] = target: human immunodeficiency virus-specified reverse transcriptase (Human immunodeficiency virus type 1 group M subtype B, UniProt P04585); conditions: HIV reverse transcriptase; cited from earlier work
[3] = target: cellular DNA polymerase alpha (Homo sapiens, UniProt P09884); conditions: cited from earlier work
Sequence of cellular DNA polymerase alpha (P09884 whole entry): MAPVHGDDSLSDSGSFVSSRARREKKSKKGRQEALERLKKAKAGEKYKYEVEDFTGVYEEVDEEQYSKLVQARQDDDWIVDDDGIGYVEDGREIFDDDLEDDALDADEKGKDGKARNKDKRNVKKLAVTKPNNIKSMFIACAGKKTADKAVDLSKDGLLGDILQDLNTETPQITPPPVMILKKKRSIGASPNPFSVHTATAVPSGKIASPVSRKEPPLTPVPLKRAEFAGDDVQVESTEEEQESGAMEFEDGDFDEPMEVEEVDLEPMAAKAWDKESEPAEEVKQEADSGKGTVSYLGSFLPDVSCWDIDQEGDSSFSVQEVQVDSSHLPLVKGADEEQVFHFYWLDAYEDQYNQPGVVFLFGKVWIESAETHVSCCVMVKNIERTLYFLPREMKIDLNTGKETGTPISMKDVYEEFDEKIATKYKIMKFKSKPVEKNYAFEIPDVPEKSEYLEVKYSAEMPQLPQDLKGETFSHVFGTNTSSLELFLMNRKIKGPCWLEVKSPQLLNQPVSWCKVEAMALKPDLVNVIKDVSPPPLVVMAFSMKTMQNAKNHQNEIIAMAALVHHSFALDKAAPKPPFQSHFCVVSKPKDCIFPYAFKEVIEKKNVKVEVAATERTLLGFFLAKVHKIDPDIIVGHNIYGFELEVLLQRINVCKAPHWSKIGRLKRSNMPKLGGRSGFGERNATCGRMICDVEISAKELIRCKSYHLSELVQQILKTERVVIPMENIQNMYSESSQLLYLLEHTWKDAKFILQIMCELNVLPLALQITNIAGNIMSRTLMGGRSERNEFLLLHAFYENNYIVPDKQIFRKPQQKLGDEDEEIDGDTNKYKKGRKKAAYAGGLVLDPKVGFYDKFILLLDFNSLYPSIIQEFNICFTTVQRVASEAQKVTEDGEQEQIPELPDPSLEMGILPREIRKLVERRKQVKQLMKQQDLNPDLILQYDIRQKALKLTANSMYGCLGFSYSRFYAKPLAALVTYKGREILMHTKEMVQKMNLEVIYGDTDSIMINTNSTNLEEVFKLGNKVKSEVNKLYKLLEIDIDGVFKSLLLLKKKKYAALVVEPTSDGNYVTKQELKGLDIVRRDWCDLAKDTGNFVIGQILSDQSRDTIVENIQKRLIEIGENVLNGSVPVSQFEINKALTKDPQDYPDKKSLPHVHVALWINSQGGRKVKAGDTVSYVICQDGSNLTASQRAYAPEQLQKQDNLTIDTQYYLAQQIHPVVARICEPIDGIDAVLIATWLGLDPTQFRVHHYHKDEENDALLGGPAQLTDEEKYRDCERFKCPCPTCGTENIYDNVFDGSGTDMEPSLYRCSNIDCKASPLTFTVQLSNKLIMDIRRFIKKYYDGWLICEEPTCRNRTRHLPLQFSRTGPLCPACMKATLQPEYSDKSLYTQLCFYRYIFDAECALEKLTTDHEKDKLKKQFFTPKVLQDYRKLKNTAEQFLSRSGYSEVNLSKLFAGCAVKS

Question: Which “activity as intact conjugate” value (microtubule assembly) does the source give for `CC/C=C\C/C=C\C/C=C\C/C=C\C/C=C\C/C=C/CCC(=O)O[C@@H](C(=O)O[C@H]1C[C@@]2(O)[C@@H](OC(=O)c3ccccc3)C3[C@](C)(C(=O)[C@H](OC(C)=O)C(=C1C)C2(C)C)[C@@H](O)C[C@H]1OC[C@@]31OC(C)=O)[C@@H](NC(=O)c1ccccc1)c1ccccc1` (stereo partly drawn) [DHA-paclitaxel] here?
Answer: Its value is “inactive as intact conjugates”.

Question: With `CCCCCCCC/C=C\CCCCCCCC(=O)NC1=NC=NC2C1N=CN2CCOCP(=O)([O-])[O-].[Na+].[Na+]` (stereo not drawn) [Formula III, PMEA-oleyl amide] as the molecule, how does the “SI (selectivity index)” value (RV 2) read?
Answer: Its value is 1.

Question: What about the “SI (selectivity index)” value (Flu A) of the same molecule?
Answer: The value was 1.

Question: What about the “SI (selectivity index)” value (HCMV) of the same molecule?
Answer: The value was 1.

Question: What about the “SI (selectivity index)” value (BK (polyoma)) of the same molecule?
Answer: Its value is greater than 213.

Question: What about the “antiviral activity / sensitivity of virus” value (BK (polyoma)) of the same molecule?
Answer: Its value is “sensitive”.

Question: What about the “antiviral activity / sensitivity of virus” value (HPV-11) of the same molecule?
Answer: Its value is “sensitive only to the compound of Formula III”.

Question: What about the “SI (selectivity index)” value (Rift Valley Fever) of the same molecule?
Answer: Its value is 1.

Question: And the “SI (selectivity index)” value (Flu B)?
Answer: The value was 1.

Question: And the “SI (selectivity index)” value (HSV-2; HSV-2 (1), first replicate)?
Answer: Its value is greater than 8.5.

Question: What about the “SI (selectivity index)” value (HSV-2; HSV-2 (2), second replicate) of the same molecule?
Answer: The value was 5.7.

Question: And the “antiviral activity / sensitivity of virus” value (HSV-2; HSV-2, in vitro)?
Answer: Its value is “sensitive only to the compound of Formula III”.

Question: And the “SI (selectivity index)” value (Measles; Measles (NR assay))?
Answer: The value was greater than 20.

Question: And the “antiviral activity / sensitivity of virus” value (Measles; measles virus, in vitro)?
Answer: The value was “sensitive only to the compound of Formula III”.

Question: What about the “SI (selectivity index)” value (Punta Toro) of the same molecule?
Answer: Its value is 1.

Question: And the “SI (selectivity index)” value (Pichinde)?
Answer: The value was 1.

Question: What about the “SI (selectivity index)” value (Vaccinia) of the same molecule?
Answer: Its value is 1 and >2.

Question: And the “SI (selectivity index)” value (HSV-1; HSV-1 (1), first replicate)?
Answer: The value was greater than 17.8.

Question: And the “SI (selectivity index)” value (HSV-1; HSV-1 (2), second replicate)?
Answer: The value was greater than 143.

Question: What about the “antiviral activity / sensitivity of virus” value (HSV-1; HSV-1, in vitro) of the same molecule?
Answer: Its value is “sensitive only to the compound of Formula III”.

Question: What about the “SI (selectivity index)” value (Yellow Fever) of the same molecule?
Answer: Its value is 1.

Question: And the “SI (selectivity index)” value (SARS)?
Answer: The value was 1.

Question: What about the “SI (selectivity index)” value (Cowpox) of the same molecule?
Answer: The value was 1.

Question: And the “SI (selectivity index)” value (RSV A)?
Answer: Its value is 1.

Question: What about the “SI (selectivity index)” value (Adeno) of the same molecule?
Answer: The value was 1.

Question: And the “SI (selectivity index)” value (VEE)?
Answer: The value was 1.

Question: And the “antiviral activity / sensitivity of virus” value (VZV)?
Answer: Its value is “sensitive”.

Question: And the “SI (selectivity index)” value (Dengue)?
Answer: Its value is 1.

Question: And the “SI (selectivity index)” value (PIV)?
Answer: Its value is 1.

Question: What about the “SI (selectivity index)” value (Tacaribe) of the same molecule?
Answer: Its value is 2.

Question: With `Nc1ncnc2c1ncn2CCOCP(=O)(O)OP(=O)(O)OP(=O)(O)O` [PMEApp] as the molecule, how does the intracellular half-life [1] read?
Answer: Its intracellular half-life is 16 to 18 h.

Question: What about the Ki/Km [2] of the same molecule?
Answer: Its Ki/Km is 0.01.

Question: And the Ki/Km [3]?
Answer: Its Ki/Km is 0.60.
